What all share (experiment): growth of human tumour cells (NCI), 48 h
In assay [1] the test system is HT29 colon.
In assay [2] the test system is SK-MEL-28 melanoma.
In assay [3] the test system is MDA-N.
In assay [4] the test system is NCI-H226 lung.
For assay [5], the system named is BT-549 breast.
Assay [6] concerns A549 NSCLC.
Assay [7] relates to NCI-H522 lung.
In assay [8] the test system is SR leukemia.
The test system of assay [9] is SNB-75 CNS.
Assay [10] has as its system U251 CNS.
Assay [11] has as its system M14 melanoma.
Assay [12] has as its system MOLT-4 leukemia.
In assay [13] the test system is 786-0 renal.
In assay [14] the test system is A498 renal.
Assay [15] deals with SW-620 colon.
The subject of assay [16] is ACHN renal.

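Test compounds were applied to cells in 96-well plates for 48 hours at 5 doses. TGI: concentration producing complete growth inhibition.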

This note sets out measurements from PubChem BioAssay (NCI).

As to `C=C=C(CC1CCCCC1=O)S(=O)(=O)c1ccccc1` (centres undefined), the TGI in [1], in [2], in [3], in [4], in assay [5] and in [6] was above 10 µM throughout. Further, the TGI in [7] was 6.71 µM; in [8] it was above 6.03 µM; in [9] it was above 10 µM; in [10], above 10 µM; in assay [11] it was above 10 µM; in [12] it was 3.06 µM. Moreover, the TGI is above 10 µM in [13], above 10 µM in assay [14], above 9.53 µM in [15] and above 10 µM in assay [16].

As to `CC(=O)Nc1c(S(=O)(=O)c2ccccc2)c(C)c(C)n1CCN(C)C`, the TGI in [1], in [2], in assay [3], in [4], in assay [5] and in [6] was above 100 µM throughout. The TGI in assay [7], in [8], in assay [9], in assay [10], in assay [11] and in assay [12] was above 100 µM each time. Also, the TGI in assay [13], in [14], in [15] and in [16] was above 100 µM throughout.

With `CCc1ccccc1N=NC(=O)NNc1ccccc1CC`, the TGI amounted to 40.8 µM in assay [1]; 32.2 µM in assay [2]; 33.2 µM in assay [3]; 34.4 µM in assay [4]; 34.3 µM in assay [5]; 31.9 µM in [6]. In addition, the TGI was 41.3 µM in assay [7]; 57.1 µM in assay [8]; 45.7 µM in assay [9]; 29.6 µM in assay [10]; 34.7 µM in assay [11]; 50.1 µM in assay [12]. The TGI was found to be 31.6 µM in [13], 36.5 µM in assay [14], 37.5 µM in [15] and 54.6 µM in [16].

With `Cc1nc(N)c(N2CCN(C(=O)O)CC2)c(=O)[nH]1`, the TGI in [1], in [2], in assay [3], in assay [4], in assay [5] and in assay [6] was above 100 µM in each case. Also, the TGI in [7], in assay [8], in [9], in assay [10], in assay [11] and in [12] was above 100 µM throughout. Also, the TGI in assay [13], in [14], in assay [15] and in [16] was above 100 µM in each case.

In the case of `Cc1cc(C)n(CC(Cn2nc(C)cc2C)=C(/C(Cl)=C(/Cl)Nc2ccc([N+](=O)[O-])cc2)[N+](=O)[O-])n1`, the TGI in assay [1] is 11.3 µM; in assay [2] it was 29 µM; in assay [3], 15.3 µM; in assay [4], 49.4 µM; in assay [5] it was 15.7 µM; in assay [6] it was 13.3 µM. Further, the TGI in [7] was 5.01 µM; in [8], 8.49 µM; in [9], 14.3 µM; in [10], 13.5 µM; in [11], 16.6 µM; in assay [12], 4.77 µM. Besides, the TGI in assay [13] was determined as 18.9 µM; in assay [14] it was 11.2 µM; in assay [15], 17.7 µM; in assay [16], 11.6 µM.

On to `N=C1OC(CN2CCN(c3ccccc3)CC2)CN1C(=S)Nc1ccccc1` (centres undefined), for which the TGI in [1], in assay [2], in [3], in assay [4], in assay [5] and in assay [6] was above 100 µM each time. Further, the TGI in [7], in [8], in [9], in [10], in [11] and in [12] was above 100 µM in each case. Moreover, the TGI in [13], in assay [14], in [15] and in [16] was above 100 µM in each case.

For the molecule `O=C1CSC(/C=C/c2ccccc2)N1c1nc2cc3sc(N4C(=O)CSC4/C=C/c4ccccc4)nc3cc2s1` (centres undefined), the TGI was above 67 µM in assay [1]; above 100 µM in [2]; above 100 µM in [3]; above 95.5 µM in [4]; above 100 µM in [5]; above 100 µM in assay [6]. The TGI is above 100 µM in assay [7]; above 83.7 µM in assay [8]; above 100 µM in [9]; above 100 µM in [10]; above 100 µM in [11]; above 100 µM in assay [12]. The TGI in assay [13], in assay [14], in assay [15] and in [16] was above 100 µM each time.

In the case of `CC(C)OC(=O)c1ccc(CCC2=CC(=O)C=CC2=O)cc1`, the TGI is 33.1 µM in assay [1]; 32.9 µM in [2]; 22.6 µM in [3]; 33.5 µM in assay [4]; 19.7 µM in [5]; above 79.7 µM in assay [6]. Moreover, the TGI in assay [7] was 4.02 µM; in assay [8], above 25.3 µM; in assay [9], 62.5 µM; in assay [10], 37.8 µM; in assay [11], 39 µM; in [12], 8.05 µM. The TGI worked out at 15.6 µM in assay [13], 45.3 µM in assay [14], 19.1 µM in assay [15] and 18.8 µM in [16].

As for `COc1ccc(N=NC(=O)NC(Cc2ccccc2)C(=O)O)cc1` (centres undefined), the TGI in [1], in assay [2], in [3], in assay [4], in [5] and in [6] was above 100 µM each time. Besides, the TGI in assay [7], in assay [8], in [9], in [10], in [11] and in assay [12] was above 100 µM in each case. Besides, the TGI in assay [13], in assay [14], in assay [15] and in assay [16] was above 100 µM each time.
